# Measurements reported in DBAASP.
# Values joined by “and” are separate entries in the source; they are usually repeats but may differ in a detail not shown here. Identical values can stand only once.
# Assays:
# Experiment in all cases: ≥ marks a high value that may be exact or a test limit, other limits are often not marked, values filed in µg/mL are converted to µM
# [1] = system: Candida albicans NCYC 1467
# [2] = system: Enterococcus faecalis NCTC 12697
# [3] = system: Escherichia coli NCTC 10418
# [4] = system: Klebsiella pneumoniae ATCC 43816
# [5] = system: Pseudomonas aeruginosa ATCC 27853
# [6] = system: Staphylococcus aureus NCTC 10788
# [7] = system: Staphylococcus aureus NCTC 12493
# Escherichia coli = system: Escherichia coli
# Listeria innocua = system: Listeria innocua
# Micrococcus luteus A270 = system: Micrococcus luteus A270
# Micrococcus luteus = system: Micrococcus luteus
# [8] = system: Salmonella enterica subsp. enterica serovar Enteritidis
# Staphylococcus aureus = system: Staphylococcus aureus
# Escherichia coli BW25113 = system: Escherichia coli BW25113
# Aeromonas hydrophila = system: Aeromonas hydrophila
# Vibrio harveyi = system: Vibrio harveyi
# [9] = system: Bacillus subtilis ATCC 62037
# [10] = system: Candida albicans ATCC 10231
# [11] = system: Cryptococcus neoformans ATCC 34881
# [12] = system: Escherichia coli ATCC 27325
# [13] = system: Pseudomonas putida ATCC 17426
# [14] = system: Saccharomyces cerevisiae ATCC 44774
# [15] = system: Salmonella enterica subsp. enterica serovar Enteritidis ATCC 13076
# [16] = system: Staphylococcus aureus ATCC 15752
# [17] = system: Streptococcus mutans ATCC 25175
smiles,measurement,setting,value
CC[C@H](C)[C@@H]1NC(=O)[C@H](C)NC(=O)[C@@H](NC(=O)[C@H](Cc2ccccc2)NC(=O)[C@@H](NC(=O)[C@H](CCCCN)NC(=O)[C@H](Cc2c[nH]c3ccccc23)NC(=O)[C@@H]2CCCN2C(=O)[C@H](CC(C)C)NC(=O)[C@H](Cc2ccccc2)NC(=O)[C@H](CCCCN)NC(=O)[C@@H](N)CCCCN)[C@@H](C)CC)CSSC[C@@H](C(=O)O)NC(=O)[C@H](CCCCN)NC(=O)[C@H](CCCCN)NC(=O)[C@H]([C@@H](C)O)NC1=O [KKFLPWKIFCAITKKC],MIC,[1],8 µM
same,MIC,[2],≥ 256 µM
same,MIC,[3],16 µM
same,MIC,[4],≥ 32 µM
same,MIC,[5],64 µM
same,MIC,[6],8 µM
same,MIC,[7],8 µM
CC(C)C[C@H](NC(=O)[C@@H](NC(=O)[C@@H](NC(=O)[C@@H](N)CO)[C@@H](C)O)C(C)C)C(=O)N[C@H](C(=O)N[C@@H](CO)C(=O)N[C@@H](CCCCN)C(=O)N[C@@H](Cc1ccc(O)cc1)C(=O)N[C@@H](CCCN=C(N)N)C(=O)O)[C@@H](C)O [STVLTSKYR],MIC,Escherichia coli,8 µM
same,MIC,Listeria innocua,2 µM
same,MIC,Micrococcus luteus A270,15 µM
same,MIC,Micrococcus luteus,15 µM
same,MIC,[8],8 µM and 7.5 µM
same,MIC,Staphylococcus aureus,2 µM
CC[C@H](C)[C@H](NC(=O)[C@@H]1CCCN1C(=O)[C@H](Cc1c[nH]c2ccccc12)NC(=O)[C@H](CCCN=C(N)N)NC(=O)[C@H](Cc1c[nH]c2ccccc12)NC(=O)[C@@H](N)CCCN=C(N)N)C(=O)N[C@@H](CCCN=C(N)N)C(=O)N[C@@H](CCCN=C(N)N)C(=O)N1CCC[C@H]1C(=O)N1CCC[C@H]1C(=O)N[C@H](C(=O)N[C@@H](CCCN=C(N)N)C(=O)N1CCC[C@H]1C(=O)N1CCC[C@H]1C(=O)N[C@@H](Cc1c[nH]c2ccccc12)C(=O)N[C@@H](Cc1ccc(O)cc1)C(=O)N1CCC[C@H]1C(=O)O)[C@@H](C)CC [RWRWPIRRPPIRPPWYP],MIC,Escherichia coli BW25113,8 µM
CC[C@H](C)[C@H](NC(=O)[C@H](C)NC(=O)[C@H](CCCN=C(N)N)NC(=O)[C@H](Cc1cnc[nH]1)NC(=O)[C@@H](NC(=O)[C@H](C)NC(=O)[C@H](CCCN=C(N)N)NC(=O)[C@@H](NC(=O)CNC(=O)[C@H](Cc1cnc[nH]1)NC(=O)[C@H](CO)NC(=O)[C@@H](NC(=O)[C@H](Cc1c[nH]c2ccccc12)NC(=O)CNC(=O)[C@@H](NC(=O)[C@@H](NC(=O)[C@H](C)NC(=O)[C@H](Cc1cnc[nH]1)NC(=O)[C@@H](NC(=O)[C@@H](N)Cc1ccccc1)[C@@H](C)CC)[C@@H](C)CC)[C@@H](C)CC)[C@@H](C)CC)C(C)C)[C@@H](C)CC)C(=O)N[C@@H](Cc1cnc[nH]1)C(N)=O [FIHAIIGWISHGVRAIHRAIH],MIC,Aeromonas hydrophila,16 µM
same,MIC,Vibrio harveyi,≥ 32 µM
CC[C@H](C)[C@H](NC(=O)[C@@H]1CCCN1C(=O)[C@H](CCCN=C(N)N)NC(=O)[C@H](CCCN=C(N)N)NC(=O)[C@H](Cc1ccccc1)NC(=O)[C@@H](N)CCCN=C(N)N)C(=O)N[C@@H](CCCN=C(N)N)C(=O)N[C@@H](CCCN=C(N)N)C(=O)N[C@@H](CCCN=C(N)N)C(=O)N1CCC[C@H]1C(=O)N[C@H](C(=O)N[C@@H](CCCN=C(N)N)C(=O)N1CCC[C@H]1C(=O)N1CCC[C@H]1C(=O)N[C@@H](Cc1c[nH]c2ccccc12)C(=O)N[C@@H](Cc1ccc(O)cc1)C(=O)N[C@@H](CCCN=C(N)N)C(=O)O)[C@@H](C)CC [RFRRPIRRRPIRPPWYR],MIC,Escherichia coli BW25113,8 µM
CC[C@H](C)[C@H](NC(=O)[C@@H]1CCCN1C(=O)[C@H](CCCN=C(N)N)NC(=O)[C@H](CCCN=C(N)N)NC(=O)[C@H](Cc1ccccc1)NC(=O)[C@@H](N)CCCN=C(N)N)C(=O)N[C@@H](CCCN=C(N)N)C(=O)N[C@@H](CCCN=C(N)N)C(=O)N1CCC[C@H]1C(=O)N1CCC[C@H]1C(=O)N[C@H](C(=O)N[C@@H](CCCN=C(N)N)C(=O)N1CCC[C@H]1C(=O)N1CCC[C@H]1C(=O)N[C@@H](Cc1c[nH]c2ccccc12)C(=O)N[C@@H](Cc1ccc(O)cc1)C(=O)N1CCC[C@H]1C(=O)O)[C@@H](C)CC [RFRRPIRRPPIRPPWYP],MIC,Escherichia coli BW25113,12 µM
CC[C@H](C)[C@H](NC(=O)CNC(=O)[C@H](CCCCN)NC(=O)[C@H](CCCCN)NC(=O)[C@H](CCC(N)=O)NC(=O)[C@H](CC(C)C)NC(=O)[C@H](CCCN=C(N)N)NC(=O)[C@H](CC(C)C)NC(=O)[C@H](CC(C)C)NC(=O)[C@H](CCCN=C(N)N)NC(=O)[C@H](CCCN=C(N)N)NC(=O)[C@H](CC(C)C)NC(=O)[C@H](CC(C)C)NC(=O)[C@H](CCCN=C(N)N)NC(=O)[C@H](CCSC)NC(=O)[C@H](C)NC(=O)[C@H](CCCCN)NC(=O)[C@@H]1CCCN1C(=O)[C@H](C)N)C(=O)O [APKAMRLLRRLLRLQKKGI],MIC,[9],0.442 µM
same,MIC,[10],0.221 µM
same,MIC,[11],0.221 µM
same,MIC,[12],0.442 µM
same,MIC,[13],0.442 µM
same,MIC,[14],0.221 µM
same,MIC,[15],0.442 µM
same,MIC,[16],0.884 µM
same,MIC,[17],0.442 µM
CC(C)C[C@H](NC(=O)[C@H](C)NC(=O)[C@H](CC(N)=O)NC(=O)[C@H](C)NC(=O)[C@@H](NC(=O)CNC(=O)[C@H](C)NC(=O)[C@@H](NC(=O)[C@@H](NC(=O)[C@H](CCCCN)NC(=O)[C@H](CCC(N)=O)NC(=O)[C@H](Cc1ccccc1)NC(=O)[C@H](CC(=O)O)NC(=O)[C@H](C)NC(=O)[C@@H](N)CCC(N)=O)C(C)C)C(C)C)C(C)C)C(=O)N[C@@H](C)C(=O)N[C@@H](Cc1cnc[nH]1)C(=O)N[C@@H](CCCN=C(N)N)C(=O)N[C@@H](Cc1ccc(O)cc1)C(=O)N[C@@H](Cc1cnc[nH]1)C(=O)O [QADFQKVVAGVANALAHRYH],MIC,Escherichia coli,71 µM
same,MIC,Listeria innocua,≥ 71 µM
same,MIC,Micrococcus luteus A270,≥ 71 µM
same,MIC,[8],≥ 35 µM
CC[C@H](C)[C@H](NC(=O)[C@H](C)NC(=O)[C@H](CO)NC(=O)[C@@H](NC(=O)[C@@H](NC(=O)[C@H](CCCCN)NC(=O)[C@@H]1CCCN1C(=O)[C@@H](NC(=O)[C@H](CC(C)C)NC(=O)[C@H](CO)NC(=O)[C@H](CC(C)C)NC(=O)[C@@H](N)Cc1ccccc1)[C@@H](C)CC)[C@@H](C)CC)[C@@H](C)CC)C(=O)N[C@@H](CO)C(=O)N[C@@H](C)C(=O)N[C@@H](CC(C)C)C(=O)N[C@H](C(=O)N[C@@H](CCCCN)C(=O)N[C@@H](Cc1cnc[nH]1)C(=O)N[C@@H](Cc1ccccc1)C(N)=O)[C@@H](C)CC [FLSLIPKIISAISALIKHF],MIC,[1],≥ 32 µM
same,MIC,[2],16 µM
same,MIC,[3],≥ 512 µM
same,MIC,[4],≥ 512 µM
same,MIC,[5],> 512 µM
same,MIC,[6],2 µM
same,MIC,[7],≥ 64 µM
